Results on 1 compound are retold here after patent US12023335B2, “Method for treating pancreatic cancer” (PTC THERAPEUTICS, INC., priority 2018, dated 2024).

“Also recorded” adds a separate entry of the source.

The subject of data set [1] is Aspc1 cells. In words: Active caspase 3 apoptosis flow cytometry in Aspc1 cells. Format: cell-based, human. To be noted: 24, 48, 72 hours, relative to vehicle (FIGS. 3a, 3b). As for the experimental part:
For active Caspase-3 (ActCasp3) staining, the Caspase 3 (active) FITC Staining Kit (Abcam, ab65613) was used according to manufacturer's instructions. Cells were seeded in 12-well plates such that ˜16 hours later they would be approximately 50-60% confluent. […] Samples were analyzed on a BD LSR II™ and analyzed by FlowJo software. (FIG. 3a and FIG. 3b)
Background: A flow cytometer gives signals particle by particle.

Another data set relates to tubulin. In words: Immunocytochemistry of tubulin and DAPI in Aspc1 cells. To be noted: 24 hours, relative to vehicle (FIGS. 11c, 11d). Format: cell-based, human. As for the experimental part: Cells were seeded onto glass coverslips in 12-well plates. Coverslips were prepared by soaking in 1N HCl (60° C., 6 hours), washing in 70% ethanol, and coating with poly-l-lysine (Sigma, P5899) according to manufacturer's instructions. Cells were seeded such that they would be 50% confluent the following day. Cells were then treated with vehicle (DMSO, <0.003%) or 1 μM Compound 1 and incubated for 24 hours. Following treatment, cells were washed with TBS and free tubulin was extracted with Brinkley Buffer 1980 (80 mM PIPES pH 6.8, 1 mM MgCl2, 1 mM EGTA) supplemented with 4 mM EGTA and 0.5% Triton-X (30 seconds). After extraction, cells were fixed for 20 minutes in 4% formaldehyde diluted in Cytoskeleton Buffer (10 mM MES pH 6.1, 138 mM KCl, 3 mM MgCl2, 2 mM EGTA) supplemented with 0.32M sucrose. […]
Confocal imaging was performed using an A1 laser scanning confocal attachment on an Eclipse Ti microscope stand using a 60x/1.49 ApoTIRF oil-immersion objective and standard lasers and filter sets (Nikon Instruments, Melville, N.Y.). […] Images were visualized, analyzed, and prepared for publication using the Fiji distribution of ImageJ (Schindelin J, Arganda-Carreras I, Frise E, et al. Fiji: an open-source platform for biological-image analysis. Nature Methods 2012; 9:676-682). […]

For a further data set, the target named is T1, P-glycoprotein (Homo sapiens, UniProt P08183).
T1 construct: host or cells: MDCKII-mdr1 (canine kidney MDCKII cells; MDCKII-wt as control)
In words: P-glycoprotein substrate activity experiment (CC50 ratio MDCK-P-gp vs MDCK-WT). Format: in vitro ADME. Particulars: 72 hours, CellTiter-Glo (FIG. 4b). The protocol: MDCKII-mdr1 and MDCKII-wt cells were purchased from the Netherlands Cancer Institute, NKI-AVL. The cells were cultivated in Dulbecco's modified essential medium (DMEM), supplemented with 10% FBS and 1% Penn-Strep, and used between passage 3-9. Cells were seeded at a density of 3×10^3 cells/well in 96-well tissue culture treated plates. After 4 hours to allow cells to attach, cells were treated with test compound in the presence or absence of the P-glycoprotein inhibitor Valspodar. The plates were incubated at 37° C., 5% CO2 for 72 hours and ATP was measured vialuminescence using CellTiter-Glo® reagent (Promega). (FIG. 4b)
For orientation: In ATP-based viability assays light output follows the ATP content of the culture.

The subject of data set [2] is Aspc1 cells. In words: Cell cycle analysis by flow cytometry (DNA content, PH3) in Aspc1 cells. It is filed as cell-based, human. The protocol:
Cells were seeded into 12-well or 6-well plates such that 16 hours later they would be approximately 30-50% confluent. Cells were then treated for 24 hours with either DMSO (<0.003%), Compound 1 (100 nM or 1 μM), or 100 nM nocodazole (Sigma, M1404). Following treatment, cells were harvested and fixed in ice-cold 70% ethanol for a minimum of one hour. Following fixation, cells were re-suspended in PBS+2% FBS+3 μM DAPI (BioLegend, 422801) or 0.25 μg 7-AAD (BD Pharmingen, 559925), and analyzed on a MACSQuant® Analyzer 10 (Miltenyi Biotec) or BD LSR II™. For cell cycle analysis time course experiments, cells were prepared as described above, except treated for 24, 48, or 72 hours. Data was analyzed using FlowJo software. Percent populations in G2/M were identified using the univariate cell cycle platform offered by FlowJo software. Percent populations >4N were determined by gating above the 4N population of DMSO-treated cells. (FIG. 1b, FIG. 1c, FIG. 2a, FIG. 2b, FIG. 10e, and FIG. 10g)
For phospho-Histone H3 (PH3) staining, cells were fixed and permeabilized according to manufacturer's instructions using the eBioscience Foxp3/Transcription Factor Staining Buffer Set (ThermoFisher, 00-5523-00). Cells were blocked with Fc Block (BD Biosciences, 564220) and stained using a PH3 (Ser10) antibody (BioLegend, 650805) with 5 uL per million cells (45 min, room temp, dark). Samples were analyzed on a BD Fortessa™ and analyzed by FlowJo software. (FIG. 1d and FIG. 3a)

Data set [3] has as its system Aspc1 cells. In words: Aspc1 cell viability over time (AlamarBlue proliferation curves). To be noted: 0.1 μM or 1.0 μM, relative to vehicle (FIG. 1a). Format: cell-based, human. As for the experimental part: For proliferation curves, cells were plated in 96-well plates (Corning, 3603) and allowed to seed overnight. Replicate plates were plated for each time point since viability measurements were an endpoint procedure. The following day, cells were treated with Compound at indicated concentrations and treated with DMSO at the highest used concentration (always below 0.003%). Cells were treated for 96 hours, and viability was determined every 24 hours using AlamarBlue reagent (BioRad, BUF012B). Briefly, 10 μL of AlamarBlue was added to each well (100 μL), mixed briefly, and allowed to incubate at 37° C. and 5% CO2 for 4 hours. Following incubation, fluorescence was measured on a Promega multimode microplate reader. For analysis, background levels were subtracted from raw results, which were then normalized to be represented as a fold change compared to DMSO-treated cells on Day 0. All assays were carried out in at least triplicate with 4-8 technical replicates per treatment group, per experiment. (FIG. 1a and FIG. 10b)

T1 sequence (P08183 whole entry): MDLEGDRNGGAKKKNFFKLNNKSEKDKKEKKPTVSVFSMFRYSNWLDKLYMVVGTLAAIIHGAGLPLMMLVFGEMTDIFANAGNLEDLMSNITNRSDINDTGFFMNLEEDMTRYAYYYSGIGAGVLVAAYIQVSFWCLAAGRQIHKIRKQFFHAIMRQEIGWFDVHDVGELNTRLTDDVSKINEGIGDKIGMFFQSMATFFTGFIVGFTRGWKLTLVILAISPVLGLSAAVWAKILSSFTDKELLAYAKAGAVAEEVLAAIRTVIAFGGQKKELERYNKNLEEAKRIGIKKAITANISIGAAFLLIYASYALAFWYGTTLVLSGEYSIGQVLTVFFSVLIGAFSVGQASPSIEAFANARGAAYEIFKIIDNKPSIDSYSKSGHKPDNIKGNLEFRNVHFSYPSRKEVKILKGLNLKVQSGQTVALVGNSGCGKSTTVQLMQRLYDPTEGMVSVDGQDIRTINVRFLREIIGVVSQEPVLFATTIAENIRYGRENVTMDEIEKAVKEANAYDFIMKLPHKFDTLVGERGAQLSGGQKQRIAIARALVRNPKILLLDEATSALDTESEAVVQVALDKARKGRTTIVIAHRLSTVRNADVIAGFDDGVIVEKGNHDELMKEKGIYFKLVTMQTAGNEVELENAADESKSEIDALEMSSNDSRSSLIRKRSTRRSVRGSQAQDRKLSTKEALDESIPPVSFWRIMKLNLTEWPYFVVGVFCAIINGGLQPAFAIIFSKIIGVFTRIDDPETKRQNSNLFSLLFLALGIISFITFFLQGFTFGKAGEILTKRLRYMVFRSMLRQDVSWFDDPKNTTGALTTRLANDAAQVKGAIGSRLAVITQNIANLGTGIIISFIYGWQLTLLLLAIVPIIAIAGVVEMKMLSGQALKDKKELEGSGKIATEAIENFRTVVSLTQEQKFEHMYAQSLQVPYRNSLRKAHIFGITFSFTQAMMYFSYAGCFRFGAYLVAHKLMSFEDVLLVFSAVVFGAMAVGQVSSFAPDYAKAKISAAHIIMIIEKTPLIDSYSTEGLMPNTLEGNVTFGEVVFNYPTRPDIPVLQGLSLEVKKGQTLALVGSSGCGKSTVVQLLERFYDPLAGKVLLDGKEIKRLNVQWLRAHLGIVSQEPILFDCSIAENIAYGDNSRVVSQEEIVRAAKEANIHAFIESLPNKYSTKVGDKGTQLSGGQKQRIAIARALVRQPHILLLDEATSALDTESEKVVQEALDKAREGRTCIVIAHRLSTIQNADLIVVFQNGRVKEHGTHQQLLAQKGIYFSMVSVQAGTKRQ

`Cc1nc2ccc(F)cc2n1-c1nc(N)c(F)c(Nc2ccc(C(F)(F)F)cc2)n1` [Compound 1, 5-fluoro-2-(6-fluoro-2-methyl-1H-benzo[d]imidazol-1-yl)-N4-[4-(trifluoromethyl)phenyl]pyrimidine-4,6-diamine]: in the data set on Aspc1 cells [1], the “total apoptotic Aspc1 cells (active caspase 3+)” value is on record as “time-dependent increase in cell biomarkers that indicate a corresponding increase in cell apoptosis”. For the same compound, the “tubulin staining in Aspc1 cells” value in the data set with tubulin was “significant reduction in tubulin formation”. Moreover, on P-glycoprotein, the “PGP substrate activity (ratio of CC50 values MDCK-P-gp vs MDCK-WT)” value is recorded as “lack of P-glycoprotein (PGP) substrate activity; also recorded: do not function as a PGP substrate”. Also, the “cell cycle arrest (percent cells in G0/G1, S, G2/M; percent in mitosis PH3+/4N)” value in the data set on Aspc1 cells [2] (0.1 μM or 1.0 μM, 24 hours (FIGS. 1b-1d)) is “dose and time-dependent effect in cell cycle arrest”. Moreover, the “percent of Aspc1 cells with DNA content >4N (polyploidy)” value in the data set with Aspc1 cells [2] (0.1 μM or 1.0 μM, 24, 48, 72 hours (FIGS. 2a, 2b)) is “dose and time-dependent increase in the amount of human PDA cells affected by polyploidy”. Moreover, the “mitotic arrest and apoptosis” value with Aspc1 cells [2] (multiple PDA cell lines (summary statement)) is “induce mitotic arrest and apoptosis in multiple PDA cell lines”. Further, the “relative Aspc1 cell viability over time” value in the data set on Aspc1 cells [3] was “dose and time-dependent decrease in human PDA cell viability”.
